The values below come from PubChem BioAssay (NCI).

Test systems include A498 renal; EKVX NSCLC; HCT-116 colon; HOP-62 NSCLC; HOP-92 NSCLC; HT29 colon; K-562 leukemia; LOX IMVI melanoma; NCI-H226 lung; OVCAR-5 ovarian; PC-3 prostate; RXF 393 renal; SF-268 CNS; SF-539 CNS; SK-MEL-2 melanoma; SK-MEL-28 melanoma; T-47D breast; UACC-257 melanoma; UACC-62 melanoma; UO-31 renal.
Holding throughout (assay): growth of human tumour cells (NCI), 48 h

SMILES strings stand for the structures.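 1) Cells in 96-well plates. 2) Compound, 48 h, 5 concentrations. 3) Linear interpolation between surrounding doses. 4) Unreached endpoint = highest concentration. Definition used: TGI = concentration required for complete inhibition of growth.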 Where a SMILES comes first, the peptide text is derived from it. [ ]: non-standard residue; d: D form. ξ: configuration not given here. ξLac(3-iPr) = CC(C)CC(O)C(=O)O; NMeV = CN[CH](C(=O)O)C(C)C; NMeA = CN[CH](C)C(=O)O; βAla = NCCC(=O)O

Consider `CC1(C)N=C(N)N=C(N)N1c1cccc(C(=O)Nc2ccc(S(=O)(=O)F)cc2)c1`, for which the TGI with A498 renal, in the test on EKVX NSCLC, in the test with HCT-116 colon, in the test with HOP-62 NSCLC, in the test with HOP-92 NSCLC and in the test on HT29 colon was greater than 100 µM in each case. Further, the TGI in the test with K-562 leukemia, with LOX IMVI melanoma, in the test with NCI-H226 lung, in the test with OVCAR-5 ovarian, in the test on PC-3 prostate and in the test on RXF 393 renal was greater than 100 µM in each case. For the same compound, the TGI in the test on SF-268 CNS, with SF-539 CNS, in the test with SK-MEL-2 melanoma, in the test on SK-MEL-28 melanoma, in the test with T-47D breast and with UACC-257 melanoma was greater than 100 µM throughout. Besides, the TGI in the test with UACC-62 melanoma and in the test with UO-31 renal was greater than 100 µM throughout.

For the compound `CO/N=C\c1cc(O)c(O)c(/C=N/OC)c1`, the TGI in the test on A498 renal, in the test on EKVX NSCLC, in the test with HCT-116 colon, in the test with HOP-62 NSCLC, in the test with HOP-92 NSCLC and in the test with HT29 colon was greater than 100 µM in each case. For the same compound, the TGI with K-562 leukemia is greater than 100 µM; with LOX IMVI melanoma it was greater than 100 µM; in the test on NCI-H226 lung, 88.9 µM; in the test on OVCAR-5 ovarian it was greater than 100 µM; in the test on PC-3 prostate it was greater than 100 µM; in the test with RXF 393 renal it was greater than 100 µM. The TGI in the test on SF-268 CNS, with SF-539 CNS, in the test with SK-MEL-2 melanoma, in the test with SK-MEL-28 melanoma, in the test on T-47D breast and in the test on UACC-257 melanoma was greater than 100 µM each time. Besides, the TGI in the test with UACC-62 melanoma and with UO-31 renal was greater than 100 µM each time.

Regarding `CCOC(=O)c1c(C)n([O-])c2cc(Cl)c(Cl)cc2[n+]1=O`, the TGI in the test with A498 renal was 58 µM; in the test on EKVX NSCLC, 74.4 µM; in the test on HCT-116 colon, 46.3 µM; in the test on HOP-62 NSCLC, 57.8 µM; in the test on HOP-92 NSCLC, 33.2 µM; in the test with HT29 colon it was greater than 100 µM. Further, the TGI in the test on K-562 leukemia is greater than 100 µM; with LOX IMVI melanoma, 38.4 µM; in the test on NCI-H226 lung, 33.5 µM; in the test with OVCAR-5 ovarian, greater than 100 µM; in the test on PC-3 prostate, greater than 100 µM; in the test on RXF 393 renal it was 50.3 µM. In addition, the TGI was 76 µM in the test on SF-268 CNS; greater than 100 µM in the test with SF-539 CNS; 52 µM in the test on SK-MEL-2 melanoma; greater than 100 µM in the test on SK-MEL-28 melanoma; 60.1 µM in the test on T-47D breast; 44.5 µM with UACC-257 melanoma. Also, the TGI in the test with UACC-62 melanoma turned out to be 32.5 µM; in the test with UO-31 renal, 67.1 µM.

`O=C1/C(=C/c2ccc(Oc3ccccc3)cc2)N=C(c2ccccc2)N1c1ccc(S(=O)(=O)Nc2nccs2)cc1`: the TGI with A498 renal is 82 µM; in the test on EKVX NSCLC it was greater than 100 µM; with HCT-116 colon, 35.4 µM; with HOP-62 NSCLC, 79.4 µM; in the test on HOP-92 NSCLC it was 99.7 µM; in the test with HT29 colon, 72.6 µM. Also, the TGI in the test with K-562 leukemia was greater than 100 µM; in the test on LOX IMVI melanoma it was 70.5 µM; in the test on NCI-H226 lung it was greater than 100 µM; in the test on OVCAR-5 ovarian, greater than 100 µM; in the test with PC-3 prostate, greater than 100 µM; with RXF 393 renal, 93.4 µM. The TGI in the test on SF-268 CNS was greater than 100 µM; in the test on SF-539 CNS it was greater than 100 µM; in the test on SK-MEL-2 melanoma it was 16.1 µM; with SK-MEL-28 melanoma, greater than 100 µM; in the test with T-47D breast, 77.1 µM; in the test on UACC-257 melanoma it was 92.5 µM. Moreover, the values for the TGI with UACC-62 melanoma and in the test on UO-31 renal were greater than 100 µM and 78.2 µM, respectively.

Consider `O=C(O)CCC(N=NNc1ccc(-c2nc3ccccc3[nH]2)cc1)C(=O)O` (configuration not stated), for which the TGI with A498 renal, with EKVX NSCLC, in the test on HCT-116 colon, in the test on HOP-62 NSCLC, in the test with HOP-92 NSCLC and with HT29 colon was greater than 100 µM in each case. Further, the TGI in the test on K-562 leukemia, in the test on LOX IMVI melanoma, in the test with NCI-H226 lung, with OVCAR-5 ovarian, with PC-3 prostate and in the test with RXF 393 renal was greater than 100 µM each time. For the same compound, the TGI with SF-539 CNS, with SK-MEL-2 melanoma, with SK-MEL-28 melanoma, in the test on T-47D breast, in the test on UACC-257 melanoma and in the test with UO-31 renal was greater than 100 µM throughout.

Turning to `CCC(C)C1NC(=O)C2CCCN2C(=O)C(CC(C)C)OC(=O)CCNC(=O)C(C)N(C)C(=O)C(C(C)C)N(C)C1=O` (configuration not stated) (cyclo([ξLac(3-iPr)]PI[NMeV][NMeA][βAla]); configuration not given here), the TGI was 81.8 µM in the test on A498 renal; greater than 100 µM in the test on EKVX NSCLC; 19.6 µM in the test on HCT-116 colon; 17.7 µM in the test on HOP-62 NSCLC; greater than 100 µM in the test with HOP-92 NSCLC; 43.7 µM in the test with HT29 colon. In addition, the TGI in the test on K-562 leukemia was greater than 100 µM; with NCI-H226 lung, greater than 45.9 µM; in the test with OVCAR-5 ovarian, greater than 100 µM; in the test on PC-3 prostate it was greater than 100 µM; in the test with RXF 393 renal, 98 µM; in the test on SF-268 CNS, 80.9 µM. In addition, the TGI in the test with SF-539 CNS was greater than 80.3 µM; in the test with SK-MEL-2 melanoma, 8.81 µM; with SK-MEL-28 melanoma, greater than 100 µM; with T-47D breast it was 38.9 µM; with UACC-257 melanoma, 41.8 µM; with UACC-62 melanoma it was 5.06 µM. This compound returned a TGI with UO-31 renal greater than 42 µM.
